{"source": "patent US8952024B2", "about": "“Herbicidal pyrimidone derivatives” (E I du Pont de Nemours and Company, priority 2009, dated 2015)", "assay_type_in_all_cases": "in vivo", "key": {"[1]": {"tested_on": "barnyardgrass (Echinochloa crus-galli)", "assay": "Test B flooded paddy test", "settings": "for Plant response rating, Flood, Barnyardgrass: 250 g ai/ha, flooded paddy test, visual rating on 0 to 100 scale (0 no effect, 100 complete control) after 13 to 15 days; for Plant response rating, Barnyardgrass: Flood (flooded paddy test), 13 to 15 days; for Barnyardgrass plant response rating: Flood, 31 g ai/ha, scale 0 to 100 (0 no effect, 100 complete control)", "how_it_was_run": "(§1)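 Each compound is added to standing floodwater (3 cm above soil, maintained) in pots of 2-leaf-stage plants; greenhouse exposure lasts 13–15 d before visual comparison with controls on a 0–100 control scale.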"}, "rice (Oryza sativa)": {"tested_on": "rice (Oryza sativa)", "assay": "Test B flooded paddy test", "settings": "for Plant response rating, Flood, Rice: 250 g ai/ha, flooded paddy test, visual rating on 0 to 100 scale (0 no effect, 100 complete control) after 13 to 15 days; for Plant response rating, Rice: Flood (flooded paddy test), 13 to 15 days; for Rice plant response rating: Flood, 31 g ai/ha, scale 0 to 100 (0 no effect, 100 complete control)", "how_it_was_run": "as §1"}, "[2]": {"tested_on": "ducksalad (Heteranthera limosa)", "assay": "Test B flooded paddy test", "settings": "for Plant response rating, Flood, Ducksalad: 250 g ai/ha, flooded paddy test, visual rating on 0 to 100 scale (0 no effect, 100 complete control) after 13 to 15 days; for Plant response rating, Ducksalad: Flood (flooded paddy test), 13 to 15 days; for Ducksalad plant response rating: Flood, 31 g ai/ha, scale 0 to 100 (0 no effect, 100 complete control)", "how_it_was_run": "as §1"}, "[3]": {"tested_on": "umbrella sedge (Cyperus difformis)", "assay": "Test B flooded paddy test", "settings": "for Plant response rating, Flood, Sedge, Umbrella: 250 g ai/ha, flooded paddy test, visual rating on 0 to 100 scale (0 no effect, 100 complete control) after 13 to 15 days; for Plant response rating, Sedge, Umbrella: Flood (flooded paddy test), 13 to 15 days; for Sedge, Umbrella plant response rating: Flood, 31 g ai/ha, scale 0 to 100 (0 no effect, 100 complete control)", "how_it_was_run": "as §1"}, "wild oat (Avena fatua)": {"tested_on": "wild oat (Avena fatua)", "assay": "Test B pre-/postemergence plant response", "settings": "for Oat, Wild plant response rating (0 to 100 scale): 62 g ai/ha, postemergence, 0 is no effect, 100 is complete control; for Plant response rating, Oat, Wild: Postemergence", "how_it_was_run": "(§2)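 Greenhouse herbicide screen. Pre- and postemergence (1- to 4-leaf) spray of compound in solvent/surfactant mixture; loam–sand soil for pre, peat/vermiculite medium for post. Visual control rating 0–100 at 13 to 15 days after treatment.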"}, "[4]": {"tested_on": "pigweed (Amaranthus retroflexus)", "assay": "Test B pre-/postemergence plant response", "settings": "for Pigweed plant response rating (0 to 100 scale): 62 g ai/ha, postemergence, 0 is no effect, 100 is complete control; for Plant response rating, Pigweed: Postemergence", "how_it_was_run": "as §2"}, "[5]": {"tested_on": "windgrass (Apera spica-venti)", "assay": "Test B postemergence plant response", "settings": "for Windgrass plant response rating (0 to 100 scale): 62 g ai/ha, postemergence, 0 is no effect, 100 is complete control; for Plant response rating, Windgrass: Postemergence", "how_it_was_run": "(§3)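 Plants grown in peat/vermiculite medium were sprayed postemergence at 2–18 cm height (1- to 4-leaf stage). After 13–15 days in the greenhouse, response was rated visually against untreated controls on a 0–100 scale (0 no effect, 100 complete control).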"}, "[6]": {"tested_on": "chickweed (Stellaria media)", "assay": "Test B postemergence plant response", "settings": "for Chickweed plant response rating (0 to 100 scale): 62 g ai/ha, postemergence, 0 is no effect, 100 is complete control; for Plant response rating, Chickweed: Postemergence", "how_it_was_run": "as §3"}, "[7]": {"tested_on": "canarygrass (Phalaris minor)", "assay": "Test B postemergence plant response", "settings": "for Canarygrass plant response rating (0 to 100 scale): 62 g ai/ha, postemergence, 0 is no effect, 100 is complete control; for Plant response rating, Canarygrass: Postemergence", "how_it_was_run": "as §3"}, "[8]": {"tested_on": "winter barley (Hordeum vulgare)", "assay": "Test B postemergence plant response", "settings": "for Barley plant response rating (0 to 100 scale): 62 g ai/ha, postemergence, 0 is no effect, 100 is complete control; for Plant response rating, Barley: Postemergence", "how_it_was_run": "as §3"}, "[9]": {"settings": "62 g ai/ha, scale of 0 to 100 where 0 is no effect and 100 is complete control"}, "[10]": {"settings": "125 g ai/ha, scale 0 to 100, 0 is no effect, 100 is complete control"}, "[11]": {"settings": "31 g ai/ha, 0 to 100 scale (0 no effect, 100 complete control)"}, "[12]": {"settings": "125 g ai/ha, scale 0 to 100 (0 no effect, 100 complete control)"}, "[13]": {"settings": "250 g ai/ha, scale 0 to 100 (0 no effect, 100 complete control), 13 to 15 days"}}}
{"smiles": "O=C1CCCC(O)=C1C(=O)c1cnc(-c2ccccc2)n(C2CCOCC2)c1=O", "note": "[Compound 129]", "values": [{"measurement": "Plant response rating, Flood, Barnyardgrass", "setting": "[1]", "result": 60}, {"measurement": "Plant response rating, Barnyardgrass", "setting": "[1]; [9]", "result": 0}, {"measurement": "Plant response rating, Barnyardgrass", "setting": "[1]; [10]", "result": 10}, {"measurement": "Barnyardgrass plant response rating", "setting": "[1]", "result": 0}, {"measurement": "Plant response rating, Flood, Rice", "setting": "rice (Oryza sativa)", "result": 30}, {"measurement": "Plant response rating, Rice", "setting": "rice (Oryza sativa); [9]", "result": 0}, {"measurement": "Plant response rating, Rice", "setting": "rice (Oryza sativa); [10]", "result": 0}, {"measurement": "Rice plant response rating", "setting": "rice (Oryza sativa)", "result": 0}, {"measurement": "Plant response rating, Flood, Ducksalad", "setting": "[2]", "result": 100}, {"measurement": "Plant response rating, Ducksalad", "setting": "[2]; [9]", "result": 90}, {"measurement": "Plant response rating, Ducksalad", "setting": "[2]; [10]", "result": 90}, {"measurement": "Ducksalad plant response rating", "setting": "[2]", "result": 0}, {"measurement": "Plant response rating, Flood, Sedge, Umbrella", "setting": "[3]", "result": 60}, {"measurement": "Plant response rating, Sedge, Umbrella", "setting": "[3]; [9]", "result": 0}, {"measurement": "Plant response rating, Sedge, Umbrella", "setting": "[3]; [10]", "result": 60}, {"measurement": "Sedge, Umbrella plant response rating", "setting": "[3]", "result": 0}, {"measurement": "Oat, Wild plant response rating (0 to 100 scale)", "setting": "wild oat (Avena fatua); 13 to 15 days", "result": 5}, {"measurement": "Plant response rating, Oat, Wild", "setting": "wild oat (Avena fatua); [11]", "result": 0}, {"measurement": "Plant response rating, Oat, Wild", "setting": "wild oat (Avena fatua); [12]", "result": 20}, {"measurement": "Plant response rating, Oat, Wild", "setting": "wild oat (Avena fatua); [13]", "result": 30}, {"measurement": "Pigweed plant response rating (0 to 100 scale)", "setting": "[4]; 13 to 15 days", "result": 95}, {"measurement": "Plant response rating, Pigweed", "setting": "[4]; [11]", "result": 85}, {"measurement": "Plant response rating, Pigweed", "setting": "[4]; [12]", "result": 98}, {"measurement": "Plant response rating, Pigweed", "setting": "[4]; [13]", "result": 98}, {"measurement": "Windgrass plant response rating (0 to 100 scale)", "setting": "[5]; 13 to 15 days", "result": 60}, {"measurement": "Plant response rating, Windgrass", "setting": "[5]; [11]", "result": 45}, {"measurement": "Plant response rating, Windgrass", "setting": "[5]; [12]", "result": 80}, {"measurement": "Plant response rating, Windgrass", "setting": "[5]; [13]", "result": 85}, {"measurement": "Chickweed plant response rating (0 to 100 scale)", "setting": "[6]; 13 to 15 days", "result": 85}, {"measurement": "Plant response rating, Chickweed", "setting": "[6]; [11]", "result": 85}, {"measurement": "Plant response rating, Chickweed", "setting": "[6]; [12]", "result": 90}, {"measurement": "Plant response rating, Chickweed", "setting": "[6]; [13]", "result": 100}, {"measurement": "Canarygrass plant response rating (0 to 100 scale)", "setting": "[7]; 13 to 15 days", "result": 0}, {"measurement": "Plant response rating, Canarygrass", "setting": "[7]; [11]", "result": 0}, {"measurement": "Plant response rating, Canarygrass", "setting": "[7]; [12]", "result": 0}, {"measurement": "Plant response rating, Canarygrass", "setting": "[7]; [13]", "result": 0}, {"measurement": "Barley plant response rating (0 to 100 scale)", "setting": "[8]; 13 to 15 days", "result": 0}, {"measurement": "Plant response rating, Barley", "setting": "[8]; [11]", "result": 0}, {"measurement": "Plant response rating, Barley", "setting": "[8]; [12]", "result": 0}, {"measurement": "Plant response rating, Barley", "setting": "[8]; [13]", "result": 0}]}
{"smiles": "O=C1CCCC(O)=C1C(=O)c1cnc(-c2ccccc2)n(C2CCCCCC2)c1=O", "note": "[Compound 130]", "values": [{"measurement": "Plant response rating, Flood, Barnyardgrass", "setting": "[1]", "result": 85}, {"measurement": "Plant response rating, Barnyardgrass", "setting": "[1]; [9]", "result": 0}, {"measurement": "Plant response rating, Barnyardgrass", "setting": "[1]; [10]", "result": 0}, {"measurement": "Barnyardgrass plant response rating", "setting": "[1]", "result": 0}, {"measurement": "Plant response rating, Flood, Rice", "setting": "rice (Oryza sativa)", "result": 25}, {"measurement": "Plant response rating, Rice", "setting": "rice (Oryza sativa); [9]", "result": 0}, {"measurement": "Plant response rating, Rice", "setting": "rice (Oryza sativa); [10]", "result": 0}, {"measurement": "Rice plant response rating", "setting": "rice (Oryza sativa)", "result": 0}, {"measurement": "Plant response rating, Flood, Ducksalad", "setting": "[2]", "result": 100}, {"measurement": "Plant response rating, Ducksalad", "setting": "[2]; [9]", "result": 80}, {"measurement": "Plant response rating, Ducksalad", "setting": "[2]; [10]", "result": 80}, {"measurement": "Ducksalad plant response rating", "setting": "[2]", "result": 60}, {"measurement": "Plant response rating, Flood, Sedge, Umbrella", "setting": "[3]", "result": 100}, {"measurement": "Plant response rating, Sedge, Umbrella", "setting": "[3]; [9]", "result": 60}, {"measurement": "Plant response rating, Sedge, Umbrella", "setting": "[3]; [10]", "result": 75}, {"measurement": "Sedge, Umbrella plant response rating", "setting": "[3]", "result": 40}, {"measurement": "Oat, Wild plant response rating (0 to 100 scale)", "setting": "wild oat (Avena fatua); 13 to 15 days", "result": 30}, {"measurement": "Plant response rating, Oat, Wild", "setting": "wild oat (Avena fatua); [11]", "result": 20}, {"measurement": "Plant response rating, Oat, Wild", "setting": "wild oat (Avena fatua); [12]", "result": 40}, {"measurement": "Plant response rating, Oat, Wild", "setting": "wild oat (Avena fatua); [13]", "result": 60}, {"measurement": "Pigweed plant response rating (0 to 100 scale)", "setting": "[4]; 13 to 15 days", "result": 98}, {"measurement": "Plant response rating, Pigweed", "setting": "[4]; [11]", "result": 95}, {"measurement": "Plant response rating, Pigweed", "setting": "[4]; [12]", "result": 100}, {"measurement": "Plant response rating, Pigweed", "setting": "[4]; [13]", "result": 100}, {"measurement": "Windgrass plant response rating (0 to 100 scale)", "setting": "[5]; 13 to 15 days", "result": 65}, {"measurement": "Plant response rating, Windgrass", "setting": "[5]; [11]", "result": 60}, {"measurement": "Plant response rating, Windgrass", "setting": "[5]; [12]", "result": 75}, {"measurement": "Plant response rating, Windgrass", "setting": "[5]; [13]", "result": 85}, {"measurement": "Chickweed plant response rating (0 to 100 scale)", "setting": "[6]; 13 to 15 days", "result": 98}, {"measurement": "Plant response rating, Chickweed", "setting": "[6]; [11]", "result": 98}, {"measurement": "Plant response rating, Chickweed", "setting": "[6]; [12]", "result": 100}, {"measurement": "Plant response rating, Chickweed", "setting": "[6]; [13]", "result": 100}, {"measurement": "Canarygrass plant response rating (0 to 100 scale)", "setting": "[7]; 13 to 15 days", "result": 20}, {"measurement": "Plant response rating, Canarygrass", "setting": "[7]; [11]", "result": 5}, {"measurement": "Plant response rating, Canarygrass", "setting": "[7]; [12]", "result": 20}, {"measurement": "Plant response rating, Canarygrass", "setting": "[7]; [13]", "result": 25}, {"measurement": "Barley plant response rating (0 to 100 scale)", "setting": "[8]; 13 to 15 days", "result": 0}, {"measurement": "Plant response rating, Barley", "setting": "[8]; [11]", "result": 0}, {"measurement": "Plant response rating, Barley", "setting": "[8]; [12]", "result": 0}, {"measurement": "Plant response rating, Barley", "setting": "[8]; [13]", "result": 0}]}
